Tests used:
[1] = Plasma pharmacokinetics after single i.v. dose; conditions: pentazocine 0.5 mg/kg single i.v., n = 40
[2] = system: healthy recreational polydrug users; experiment: Global retrospective assessments at 8 h postdose; conditions: pentazocine 0.5 mg/kg i.v.
[3] = system: healthy recreational polydrug users; experiment: Drug Similarity VAS at 8 h postdose; format: in vivo, human; conditions: pentazocine 0.5 mg/kg i.v.
[4] = system: healthy recreational polydrug users; experiment: Treatment-emergent adverse events; format: in vivo, human; conditions: pentazocine 0.5 mg/kg single i.v., n = 40; safety population
[5] = system: healthy recreational polydrug users; experiment: Pupillometry; format: in vivo, human; conditions: pentazocine 0.5 mg/kg i.v.; 8-h postdose period
[6] = system: healthy recreational polydrug users; experiment: Drug effect questionnaire; conditions: pentazocine 0.5 mg/kg and difelikefalin 5 and 15 mcg/kg i.v.; unipolar 0-100 VAS
[7] = system: healthy recreational polydrug users; experiment: Drug Liking VAS, human abuse potential study; format: in vivo; conditions: for Drug Liking VAS Emax LS mean difference: mixed-effect model

CC(C)=CCN1CCC2(C)c3cc(O)ccc3CC1C2C (centres unmarked) [Pentazocine, pentazocine]
Cmax ([1]; human plasma, tandem MS, mean (SD)): 296.0 (197.7) ng/ml
AUC0-t ([1]; mean (SD)): 487.4 (133.5) h*ng/ml
V d ([1]; mean (SD)): 4280 (1079.8) ml/kg
t 1/2 ([1]; mean (SD)): 3.7 (1.2) h
Tmax ([1]; median [range]): 0.1 [0.1, 0.8] h
PVAQ median value ([2]; 8 h postdose): 10.00 $
PVAQ mean value ([2]; 8 h postdose, $0-$100 scale): 9.60 $
Mean 8-h score, Overall Drug Liking VAS ([2]; bipolar VAS, 50 neutral): greater than or equal to 69 points
Mean 8-h score, Take Drug Again VAS ([2]; bipolar VAS, 50 neutral): greater than or equal to 69 points
Drug Similarity VAS, median, cannabinoids, hallucinogens, or stimulants ([3]; unipolar 0-100): ≤ 2.0
Drug Similarity VAS, median, benzodiazepines ([3]; unipolar 0-100, n=8): 22.5
Drug Similarity VAS, median, opioids ([3]; unipolar 0-100, n=38): 65.0
Any TEAE, subjects [4]: 13 (32.5) n (%)
Any serious TEAE, subjects [4]: 0 n (%)
Any severe TEAE, subjects [4]: 0 n (%)
Discontinuation due to TEAE, subjects [4]: 1 (2.5) n (%)
TEAE Abdominal pain upper, subjects [4]: 0 n (%)
TEAE Abdominal pain, subjects [4]: 0 n (%)
TEAE Chills, subjects [4]: 2 (5.0) n (%)
TEAE Constipation, subjects [4]: 1 (2.5) n (%)
TEAE Dizziness, subjects [4]: 2 (5.0) n (%)
TEAE Dyspepsia, subjects [4]: 0 n (%)
TEAE Groin pain, subjects [4]: 0 n (%)
TEAE Headache, subjects [4]: 4 (10.0) n (%)
TEAE Hot flush, subjects [4]: 3 (7.5) n (%)
TEAE Hypoesthesia, subjects [4]: 1 (2.5) n (%)
TEAE Nausea, subjects [4]: 5 (12.5) n (%)
TEAE Vomiting, subjects [4]: 5 (12.5) n (%)
mean Emax reduction in pupil diameter from baseline (predose) [5]: 2.5 mm
Bad Effects VAS Emax, scores overall [6]: < 20 points
Drug Liking VAS Emax LS mean difference ([7]; pentazocine 0.5 mg/kg i.v. vs difelikefalin 5 mcg/kg i.v., completer set N = 39): 21.95
Drug Liking VAS Emax LS mean difference ([7]; pentazocine 0.5 mg/kg i.v. vs difelikefalin 15 mcg/kg i.v., completer set N = 39): 20.92
Drug Liking VAS Emax LS mean difference ([7]; pentazocine 0.5 mg/kg i.v. vs placebo, completer set N = 39): 35.50
Mean Drug Liking VAS scores ([7]; pentazocine 0.5 mg/kg i.v., over the first 3 h): > 60 points
Drug Liking VAS Emax, median (min, max) ([7]; pentazocine 0.5 mg/kg single i.v., completer set N = 39): 91.0 (49, 100)

Reference: article PMC8841457 (Clinical and Translational Science, 2021)
